The results in this text go back to patent US10202370B2, “Benzimidazole derivatives as selective proteine kinase inhibitors” (AB SCIENCE, priority 2013, dated 2019).

Chain of c-kit WT (P10721 26-976): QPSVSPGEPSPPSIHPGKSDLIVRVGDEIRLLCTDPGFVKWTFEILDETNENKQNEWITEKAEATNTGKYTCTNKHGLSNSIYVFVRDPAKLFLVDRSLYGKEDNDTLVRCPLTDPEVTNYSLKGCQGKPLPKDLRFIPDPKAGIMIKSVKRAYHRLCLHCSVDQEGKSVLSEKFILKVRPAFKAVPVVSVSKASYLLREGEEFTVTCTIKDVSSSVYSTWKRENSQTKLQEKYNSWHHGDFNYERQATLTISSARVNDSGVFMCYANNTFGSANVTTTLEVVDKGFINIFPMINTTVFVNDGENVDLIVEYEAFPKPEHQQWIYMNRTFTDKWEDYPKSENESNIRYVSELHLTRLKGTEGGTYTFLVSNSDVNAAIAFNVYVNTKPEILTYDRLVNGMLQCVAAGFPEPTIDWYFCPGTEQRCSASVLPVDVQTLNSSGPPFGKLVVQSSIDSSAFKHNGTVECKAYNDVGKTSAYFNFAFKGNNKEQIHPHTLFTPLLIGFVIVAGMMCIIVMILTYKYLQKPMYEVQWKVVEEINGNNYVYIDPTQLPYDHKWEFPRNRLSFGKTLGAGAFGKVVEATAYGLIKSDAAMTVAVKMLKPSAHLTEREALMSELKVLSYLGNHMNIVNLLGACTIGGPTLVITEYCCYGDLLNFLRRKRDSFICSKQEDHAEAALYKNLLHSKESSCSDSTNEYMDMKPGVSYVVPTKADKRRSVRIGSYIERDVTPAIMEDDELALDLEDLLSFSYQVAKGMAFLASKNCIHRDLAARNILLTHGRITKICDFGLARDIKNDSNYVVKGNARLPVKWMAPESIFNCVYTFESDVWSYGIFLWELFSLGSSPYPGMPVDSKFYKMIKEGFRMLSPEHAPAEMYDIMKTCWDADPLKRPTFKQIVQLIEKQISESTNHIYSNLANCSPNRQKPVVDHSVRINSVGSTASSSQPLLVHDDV

In the assay the target is c-kit WT (Homo sapiens (Human), UniProt P10721). The assay can be described thus: Proliferation assay (CellTiter-Blue) on BaF3 Kit WT cell line. The assay is classed as cell-based. As to conditions: BaF3 Kit WT cell line (murine Ba/F3 expressing Human Kit WT, with murine SCF), 48 hours. In short, it runs like this:
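Ba/F3 cells expressing human Kit WT, maintained in RPMI/10% FCS with 250 ng/ml murine SCF, were seeded at 2.10^4 cells/well and exposed to ½ serial dilutions (0–10 μM) for 48 h at 37° C. Viability was measured by CellTiter-Blue fluorescence (544Ex/590Em, 4 h) in triplicate as % of untreated proliferation.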
A general note: Resazurin is reduced to fluorescent resorufin, in cell work by metabolically active cells.
Usually IC50 stands for the concentration at which inhibition is half-maximal. Low values mean inhibition by little substance, high ones a need for much substance. On to `CCn1c(-c2cccc(C(F)(F)F)c2)nc2cc(Nc3nc(-c4cccnc4)cs3)c(C)cc21` [Compound 110, [1-Ethyl-6-methyl-2-(3-trifluoromethyl-phenyl)-1H-benzoimidazol-5-yl]-(4-pyridin-3-yl-thiazol-2-yl)-amine], for which the half-maximal inhibitory concentration (IC50) is not above 1000 nM. The compound `Cc1cc2c(cc1Nc1nc(-c3ccc(C#N)cc3)cs1)nc(-c1cccc(C(F)F)c1)n2C` [Compound 111, 4-{2-[2-(3-Difluoromethyl-phenyl)-1,6-dimethyl-1H-benzoimidazol-5-ylamino]-thiazol-4-yl}-benzonitrile] displayed an IC50 not above 1000 nM. With `Cc1cccc(-c2nc3cc(Nc4nc(-c5ccc(C#N)cc5)cs4)c(C)cc3n2C)c1` [Compound 112, 4-[2-(1,6-Dimethyl-2-m-tolyl-1H-benzoimidazol-5-ylamino)-thiazol-4-yl]-benzonitrile], the concentration for half-maximal inhibition (IC50) was not above 1000 nM. The figure for `Cc1cc2nc(-c3cccc(C(F)F)c3)n(C)c2cc1Nc1nc(-c2cccnc2)cs1` [Compound 113, [2-(3-Difluoromethyl-phenyl)-3,6-dimethyl-3H-benzoimidazol-5-yl]-(4-pyridin-3-yl-thiazol-2-yl)-amine] is 1000 to 10000 nM. The compound `Cc1cc2c(cc1Nc1nc(-c3ccc(C#N)cc3)cs1)nc(-c1cccc(C(F)(F)F)c1)n2C` [Compound 114, 4-{2-[1,6-Dimethyl-2-(3-trifluoromethyl-phenyl)-1H-benzoimidazol-5-ylamino]-thiazol-4-yl}-benzonitrile] came in with a concentration for half-maximal inhibition (IC50) not above 1000 nM. The compound `CCn1c(-c2cccc(OC(F)(F)F)c2)nc2cc(Nc3nc(-c4cccnc4)cs3)c(C)cc21` [Compound 115, [1-Ethyl-6-methyl-2-(3-trifluoromethoxy-phenyl)-1H-benzoimidazol-5-yl]-(4-pyridin-3-yl-thiazol-2-yl)-amine] displayed an IC50 not above 1000 nM. The figure for `Cc1cc2nc(-c3cccc(C(F)(F)F)c3)n(C)c2cc1Nc1nc(-c2cccnc2)cs1` [Compound 116, [3,6-Dimethyl-2-(3-trifluoromethyl-phenyl)-3H-benzoimidazol-5-yl]-(4-pyridin-3-yl-thiazol-2-yl)-amine] is 1000 to 10000 nM; for `Cc1cc2nc(-c3cccc(OC(F)(F)F)c3)n(C)c2cc1Nc1nc(-c2cccnc2)cs1` [Compound 117, [3,6-Dimethyl-2-(3-trifluoromethoxy-phenyl)-3H-benzoimidazol-5-yl]-(4-pyridin-3-yl-thiazol-2-yl)-amine] it is 1000 to 10000 nM. The compound `Cc1cccc(-c2nc3cc(C)c(Nc4nc(-c5cccnc5)cs4)cc3n2C)c1` [Compound 118, (3,6-Dimethyl-2-m-tolyl-3H-benzoimidazol-5-yl)-(4-pyridin-3-yl-thiazol-2-yl)-amine] came in with an IC50 of 1000 to 10000 nM. To `Cc1cc2c(cc1Nc1nc(-c3ccnc(Cl)c3)cs1)nc(-c1cccc(C(F)F)c1)n2C` [Compound 119, [4-(2-Chloro-pyridin-4-yl)-thiazol-2-yl]-[2-(3-difluoromethyl-phenyl)-1,6-dimethyl-1H-benzoimidazol-5-yl]-amine] belongs not above 1000 nM; to `Cc1cc2c(cc1Nc1nc(-c3ccncc3)cs1)nc(-c1cccc(S(C)(=O)=O)c1)n2C` [Compound 120, [2-(3-Methanesulfonyl-phenyl)-1,6-dimethyl-1H-benzoimidazol-5-yl]-(4-pyridin-4-yl-thiazol-2-yl)-amine], not above 1000 nM; to `Cc1cc2[nH]c(-c3cccc(S(C)(=O)=O)c3)nc2cc1Nc1nc(-c2cccnc2)cs1` [Compound 121, [2-(3-Methanesulfonyl-phenyl)-6-methyl-1H-benzoimidazol-5-yl]-(4-pyridin-3-yl-thiazol-2-yl)-amine], not above 1000 nM. To `C=CS(=O)(=O)Nc1cc(-c2nc3cc(Nc4nc(-c5ccncc5)cs4)c(C)cc3n2C)cc(C(F)(F)F)c1` [Compound 122, Ethenesulfonic acid {3-[1,6-dimethyl-5-(4-pyridin-4-yl-thiazol-2-ylamino)-yl]-5-trifluoromethyl-phenyl}-amide] belongs 1000 to 10000 nM; to `Cc1cc2[nH]c(-c3cccc(F)c3)nc2cc1Nc1nc(-c2cccnc2)cs1` [Compound 123, [2-(3-Fluoro-phenyl)-6-methyl-1H-benzoimidazol-5-yl] (4-pyridin-3-yl-thiazol-2-yl)-amine], 1000 to 10000 nM; to `Cc1cc2c(cc1Nc1nc(-c3ccncc3)cs1)nc(-c1cccc(F)c1)n2C` [Compound 124, [2-(3-Fluoro-phenyl)-1,6-dimethyl-1H-benzoimidazol-5-yl]-(4-pyridin-4-yl-thiazol-2-yl)-amine], not above 1000 nM. As for `COc1cccc(-c2nc3cc(Nc4nc(-c5ccncc5)cs4)c(C)cc3n2C)c1` [Compound 125, [2-(3-Methoxy-phenyl)-1,6-dimethyl-1H-benzoimidazol-5-yl]-(4-pyridin-4-yl-thiazol-2-yl)-amine], the 50% inhibitory concentration (IC50) is not above 1000 nM. To `COc1cccc(-c2nc3cc(Nc4nc(-c5cccnc5)cs4)c(C)cc3[nH]2)c1` [Compound 126, [2-(3-Methoxy-phenyl)-6-methyl-1H-benzoimidazol-5-yl]-(4-pyridin-3-yl-thiazol-2-yl)-amine] belongs not above 1000 nM; to `Cc1cc2nc(-c3cccc(C(F)F)c3)[nH]c2cc1Nc1nc(-c2cccc(C#N)c2)cs1` [Compound 127, 3-{2-[2-(3-Difluoromethyl-phenyl)-6-methyl-3H-benzoimidazol-5-ylamino]-thiazol-4-yl}-benzonitrile], not above 1000 nM. To `COc1cccc(-c2nc3cc(Nc4nc(-c5ccc(C#N)cc5)cs4)c(C)cc3[nH]2)c1` [Compound 128, 4-{2-[2-(3-Methoxy-phenyl)-6-methyl-1H-benzoimidazol-5-ylamino]-thiazol-4-yl}-benzonitrile] belongs not above 1000 nM. To `Cc1cccc(-c2nc3cc(Nc4nc(-c5cccc(C#N)c5)cs4)c(C)cc3[nH]2)c1` [Compound 129, 3-[2-(6-Methyl-2-m-tolyl-1H-benzoimidazol-5-ylamino)-thiazol-4-yl]-benzonitrile] belongs not above 1000 nM; to `Cc1cc2[nH]c(-c3cccc(C(F)(F)F)c3)nc2cc1Nc1nc(-c2cccc(C#N)c2)cs1` [Compound 130, 3-{2-[6-Methyl-2-(3-trifluoromethyl-phenyl)-1H-benzoimidazol-5-ylamino]-thiazol-4-yl}-benzonitrile], not above 1000 nM.

`Cc1cc2[nH]c(-c3cccc(S(C)(=O)=O)c3)nc2cc1Nc1nc(-c2ccc(C#N)cc2)cs1` [Compound 131, 4-{2-[2-(3-Methanesulfonyl-phenyl)-6-methyl-1H-benzoimidazol-5-ylamino]-thiazol-4-yl}-benzonitrile] had an IC50 not above 1000 nM. On to `Cc1cc2nc(-c3cccc(N(C)C)c3)[nH]c2cc1Nc1nc(-c2cccnc2)cs1` [Compound 132, [2-(3-Dimethylamino-phenyl)-6-methyl-3H-benzoimidazol-5-yl]-(4-pyridin-3-yl-thiazol-2-yl)-amine], for which the IC50 is not above 1000 nM. To `Cc1cc2c(cc1Nc1nc(-c3ccncc3)cs1)nc(-c1cccc(N(C)C)c1)n2C` [Compound 133] belongs not above 1000 nM; to `CCS(=O)(=O)Nc1cccc(-c2nc3cc(Nc4nc(-c5ccncc5)cs4)c(C)cc3n2C)c1` [Compound 134, Ethanesulfonic acid {3-[1,6-dimethyl-5-(4-pyridin-4-yl-thiazol-2-ylamino)-1H-benzoimidazol-2-yl]-phenyl}-amide], 1000 to 10000 nM; to `C=CS(=O)(=O)Nc1cccc(-c2nc3cc(Nc4nc(-c5ccncc5)cs4)c(C)cc3n2C)c1` [Compound 135, Ethenesulfonic acid {3-[1,6-dimethyl-5-(4-pyridin-4-yl-thiazol-2-ylamino)-1H-benzoimidazol-2-yl]-phenyl}-amide], 1000 to 10000 nM. As for `Cc1cc2[nH]c(-c3cccc(C(C)C)c3)nc2cc1Nc1nc(-c2cccnc2)cs1` [Compound 136, [2-(3-Isopropyl-phenyl)-6-methyl-1H-benzoimidazol-5-yl]-(4-pyridin-3-yl-thiazol-2-yl)-amine], the half-maximal inhibitory concentration (IC50) is not above 1000 nM. To `Cc1cc2[nH]c(-c3cccc(C(C)(C)C)c3)nc2cc1Nc1nc(-c2cccnc2)cs1` [Compound 137, [2-(3-tert-Butyl-phenyl)-6-methyl-1H-benzoimidazol-5-yl]-(4-pyridin-3-yl-thiazol-2-yl)-amine] belongs not above 1000 nM; to `Cc1cc2c(cc1Nc1nc(-c3ccc(C#N)cc3)cs1)nc(-c1cc(F)cc(C(F)(F)F)c1)n2C` [Compound 138, 4-{2-[2-(3-Fluoro-5-trifluoromethyl-phenyl)-1,6-dimethyl-1H-benzoimidazol-5-ylamino]-thiazol-4-yl}-benzonitrile], not above 1000 nM. In turn, `C#Cc1cccc(-c2nc3cc(Nc4nc(-c5cccnc5)cs4)c(C)cc3[nH]2)c1` [Compound 139, [2-(3-Ethynyl-phenyl)-6-methyl-1H-benzoimidazol-5-yl]-(4-pyridin-3-yl-thiazol-2-yl)-amine] returned an IC50 not above 1000 nM. To `Cc1cc2c(cc1Nc1nc(-c3cccnc3)cs1)nc(-c1cccc(C(C)C)c1)n2C` [Compound 140, [2-(3-Isopropyl-phenyl)-1,6-dimethyl-1H-benzoimidazol-5-yl]-(4-pyridin-3-yl-thiazol-2-yl)-amine] belongs not above 1000 nM.

Regarding `C#Cc1cccc(-c2nc3cc(Nc4nc(-c5ccc(C#N)cc5)cs4)c(C)cc3[nH]2)c1` [Compound 141, 4-{2-[2-(3-Ethynyl-phenyl)-6-methyl-1H-benzoimidazol-5-ylamino]-thiazol-4-yl}-benzonitrile], the half-inhibitory concentration (IC50) is not above 1000 nM. `Cc1cc2c(cc1Nc1nc(-c3ccc(C#N)cc3)cs1)nc(-c1cccc(C(C)C)c1)n2C` [Compound 142, 4-{2-[2-(3-Isopropyl-phenyl)-1,6-dimethyl-1H-benzoimidazol-5-ylamino]-thiazol-4-yl}-benzonitrile]: the IC50 was not above 1000 nM. `Cc1cc2[nH]c(-c3cccc(C(C)C)c3)nc2cc1Nc1nc(-c2ccc(C#N)cc2)cs1` [Compound 143, 4-{2-[2-(3-Isopropyl-phenyl)-6-methyl-1H-benzoimidazol-5-ylamino]-thiazol-4-yl}-benzonitrile] came in with an IC50 not above 1000 nM.
